Experimental data: patent US20080145313A1, “Compositions and Methods for the Treatment and Prevention of Neoplastic Disorders” (Genesis Research & Development Corporation Limited, priority 2006, published 2008)

Tests used:
YBX1 mRNA = YBX1 mRNA level by quantitative RT-PCR in A549 cells; format: cell-based, human; settings: 24 h post-transfection
Description: A549 cells were transfected with 10 nM RRM1-1 (SEQ ID NO: 4830 (DNA), and SEQ ID NO: 5136 (RNA); light grey bar in FIG. 12A), RRM1-2 (SEQ ID NO: 4831 (DNA), and SEQ ID NO: 5137 (RNA); dark grey bar in FIG. 12A), RRM1-3 (SEQ ID NO: 4832 (DNA), and SEQ ID NO: 5138 (RNA); black bar in FIG. 12A) or control siRNA (SEQ ID NO: 4804 (DNA), and SEQ ID NO: 5301 (RNA)) (open bar in FIG. 12A) and relative mRNA levels quantified 24 h post-transfection. RNA was purified from cells using Trizol® extraction as per the manufacturer's protocol (Invitrogen). cDNA was prepared by digesting approximately 200 ng purified RNA with DNAse I (Invitrogen) for 15 minutes at room temperature, followed by 15 minutes at 65° C. in the presence of 25 mM EDTA. 30 ng random primers were added and incubated for 10 minutes at room temperature, 1 minute on ice; Superscript III polymerase (Invitrogen) was added in presence of 5 nM DTT (Sigma, St Louis, Mo.) and 1 mM deoxyribonucleotides (Invitrogen), and the reaction incubated at 25° C. for 5 minutes, followed by an hour at 55° C. cDNA was diluted 1:3 in 10 mM Tris pH 7.0, and quantitative RT-PCR carried out on an ABI Prism 7900HT (Applied Biosciences, Inc., Foster City, Calif.) using FastStart TaqMan SYBRGreen (Roche, Basel, Switzerland) and specific primers at 360 nM for RRM1 and RRM2 and the housekeeping genes HPRT and Lamin. Primer sequence pairs used for RRM1, RRM2, HPRT and lamin are given in SEQ ID NO: 4881 and 4882; 4883 and 4884; 4885 and 4886; 4887 and 4888 respectively.
A549 cells were transfected with 0.1, 1.0 and 10 nM siRNA (given in SEQ ID NO: 4981 to 4985 (DNA), and SEQ ID NO: 5276-5280 (RNA)) and the relative mRNA levels quantified 24 h post-transfection as described in Example 8.

SK-Mel-5 cells = test: Growth inhibition of siRNA-transfected SK-Mel-5 cells, SYBR Green I DNA content; format: cell-based, human; settings: 10 nM siRNA; standardized against control siRNA
Description: A549 cells (human lung cancer cell line; ATCC No. CCL-185), SK-MeI-5 cells (human melanoma cell line; ATCC No. HTB-70), MCF-7 cells (human adenocarcinoma cell line; ATCC No. HTB-22), HCT-116 cells (colorectal carcinoma; ATCC CCL-247) and HCT-116 p53 null cells (derived from ATCC No. CCL-247; Bunz et al., Science 282:1497-1501, 1998) were cultured in RPMI 1640 medium with 10% v/v heat-inactivated fetal calf serum (FCS). Cells were seeded at a density of 5×10^4 cells/cm^2 in multi-well tissue culture plates. Sequences of Stealth™ siRNA duplexes (Invitrogen) targeting human ribonucleotide reductase subunit 1 (SEQ ID NO: 22) and subunit 2 (SEQ ID NO; 38) are given in SEQ ID NO: 4830-4832 (DNA), and SEQ ID NO: 5136-5138 (RNA) for RRM1, and SEQ ID NO: 5306-5308 (DNA), and SEQ ID NO: 5303-5305 (RNA) for RRM2. siRNAs were transfected at different concentrations into cells using Lipofectamine™ RNAiMAX transfection reagent (Invitrogen). Non-specific siRNA (SEQ ID NO: 4804 and 4805 (DNA), and SEQ ID NO: 5301 and 5302 (RNA)) were used as controls. The cellular DNA content was measured using a SYBR Green I-based fluorometric assay at 24, 48, 72 and 96 hours after transfection (120 hours for the MCF-7 cells), as follows. At the indicated time points following reverse transfection, cells were harvested and frozen at −80° C. overnight. Cells were thawed and cell lysis buffer (phosphate-buffered saline (PBS) containing 1% Triton X-100, pH 7) and SYBR Green I (1:10^5 V/V; Invitrogen) was added to the wells and incubated overnight in the dark at 4° C.
The following day, cell lysates were mixed thoroughly, and DNA fluorescence was measured with a Wallac Victor^2 plate reader (Turku, Finland) set at an excitation frequency of 485 nm and measuring emission at 535 nm.
siRNA-mediated inhibition of cancer cell growth using siRNA targeting the YBX1 gene (SEQ ID NO: 92) was determined as follows. SK-MeI-5 cells were cultured in RPMI 1640 medium with 10% v/v heat-inactivated fetal calf serum. Cells were cultured as described above and reverse transfected with 0.1, 1.0, 10 and 40 nM (final concentration) of a pool of YBX1-targeting siRNAs (SEQ ID NO: 4982 and 4983 (DNA), and SEQ ID NO: 5277 and 5278 (RNA); referred to as 994 and 995 in FIG. 19) or a non-specific control (SEQ ID NO: 4804 (DNA), and SEQ ID NO: 5301 (RNA); referred to as Stealth 81 ctrl in FIG. 19), and cell growth determined after 120 h by measuring DNA fluorescence with a Wallac Victor^2 plate reader (Turku, Finland) set at an excitation frequency of 485 nm and measuring emission at 535 nm. Growth inhibition by the siRNA pool was standardized against the inhibition obtained with the control siRNAs.
siRNA-mediated RNAi was also determined on a panel of different cell lines. A549, SK-MeI-5, wt HCT-116, HCT-116−/−p53 and MCF-7 cells were transfected with 10 nM siRNAs targeting YBX-1 and growth inhibition determined as described above. The YBX1 siRNAs are given in SEQ ID NO: 4981 to 4985 (DNA) and SEQ ID NO: 5276-5280 (RNA). A non-specific siRNA (SEQ ID NO: 4804 (DNA) and SEQ ID NO: 5301 (RNA)) was used as control. Growth inhibition by the siRNAs, given in Table 14, was standardized against the inhibition obtained with the control siRNA.

Substance | YBX1-specific reduction of mRNA levels in A549 cells (YBX1 mRNA; 0.1 nM siRNA) | YBX1-specific reduction of mRNA levels in A549 cells (YBX1 mRNA; 1 nM siRNA) | YBX1-specific reduction of mRNA levels in A549 cells (YBX1 mRNA; 10 nM siRNA) | growth inhibition, SK-Mel-5 cells (SK-Mel-5 cells)
SEQ ID NO: 4984: siRNA targeting YBX1 (chain 1 CAAGGTAGACCAGTGAGGCAGAATA; chain 2 CAAGGUAGACCAGUGAGGCAGAAUA; chemistry not given here; one strand in two spellings) | +++ (At least 70% inhibition) | +++ (At least 70% inhibition) | +++ (At least 70% inhibition) | +++ (At least 70% inhibition)
SEQ ID NO: 4985: siRNA targeting YBX1 (chain 1 CAGCCTAGAGAGGACGGCAATGAAG; chain 2 CAGCCUAGAGAGGACGGCAAUGAAG; chemistry not given here; one strand in two spellings) | + (At least 20% inhibition) | ++ (At least 50% inhibition) | ++ (At least 50% inhibition) | ++ (At least 50% inhibition)
SEQ ID NO: 4982: siRNA targeting YBX1 (chain 1 TTTGCTGGTAATTGCGTGGAGGACC; chain 2 UUUGCUGGUAAUUGCGUGGAGGACC; chemistry not given here; one strand in two spellings) |  | +++ (At least 70% inhibition) | +++ (At least 70% inhibition) | +++ (At least 70% inhibition)
SEQ ID NO: 4983: siRNA targeting YBX1 (chain 1 TACTGTGGTCGACGCCCATAGGGTC; chain 2 UACUGUGGUCGACGCCCAUAGGGUC; chemistry not given here; one strand in two spellings) |  |  | ++ (At least 50% inhibition) | ++ (At least 50% inhibition)
